One experiment has as its system P. gingivalis. In words: Related studies: brain abeta42 and neuroinflammation. It counts as in vivo.
A further experiment concerns the target Kgp (Porphyromonas gingivalis (Bacteroides gingivalis), UniProt Q51817). In words: Cy5 activity-based probe detection of Kgp in P. gingivalis lysate. The note with it: 100 nM, FIG. 9C. It counts as binding. Here is the method: It has a warhead that binds to the Kgp active site, a peptide-based core, and a Cy5 fluorophore for detection. Labeled target proteins can be visualized by biochemical separation of a sample with fractionation by 2-D gel electrophoresis and detection of fluorescent signals from Cy5 at the appropriate excitation and emission wavelength. Incubation of a fixed concentration of the probe following binding of Kgp to a test compound (e.g., a candidate Kgp inhibitor) results in binding of the activity probe to Kgp active sites not already bound by the test compound.
10^8 bacteria were collected and centrifuged at 5000 g for 10 min at 4° C., and the supernatant was discarded. The bacterial cell pellet was lysed with 1 mL of B-Per lysis buffer (Thermo Fischer) on ice for 10 min, then centrifuged for 10 min at 14000 g, 4° C. Supernatant-containing protein lysate was collected. Biological samples were lysed with B-Per lysis buffer for 10 min at 4° C.
Biological samples, P. gingivalis lysate or purified Kgp were incubated with quenchable Cy5 probe compound 71 (1 μM) for 1 h at 37° C. with shaking. Then, samples were denatured with NUPAGE LDS sample buffer (Thermo Fisher) containing 50 mM DTT at 95° C. for 10 min and subjected to SDS-PAGE electrophoresis using a Criterion 4-15% precast gel (Bio-Rad) and Tris/Glycine/SDS running buffer (Bio-Rad). The gel was run at 75V for 10 min and then 125V for 1.5 h. The gel was then removed from the plastic cassette and subjected to Cy5 visualization with a ChemiDoc imaging system (Bio-Rad).
Samples were labeled with quenchable Cy5 probe compound 71 (1 μM) for 1 h at 37° C. with shaking. For immunoprecipitation of Cy5 labeled Kgp, the samples were then incubated with 10 μg of rabbit polyclonal CAB102 antibody with rotation overnight at 4° C. Then, samples were incubated with prewashed Dynabead Protein G beads with rotation for 20 min at room temperature. The samples were washed 4 times with 200 μL of washing buffer, using a magnetic rack. […]

The next experiment relates to P. gingivalis W83. In words: Mouse periodontitis model, alveolar bone loss. It counts as in vivo, BALB/C mice. The conditions noted are these: week 5-10. Here is the method: At the beginning of the study, eight week old BALB/C female mice received antibiotic in drinking water (sulfamethoxazolum 0.87 mg/mL, trimethoprimum 0.17 mg/mL) for 10 days to reduce microbiome protection from experiment infection. Experimental periodontitis was induced by ligature placement followed by multiple exposures to P. gingivalis. During the ligature procedure mice were anesthetized with an intraperitoneal injection of ketamine (200 mg/kg) and xylazine (10 mg/kg), and eyes were lubricated with ointment (Puralube Vet; Pharmaderm, Melville, N.Y.). Next, a 5-0 silk ligature (Roboz Surgical Instrument Co.) was tied around the upper maxillary left and right second molar. Sutures were applied and tied gently to prevent damage to the periodontal tissue.
Mice (n=8-10/arm) were infected for 6 weeks every other day. For infection, […]. of bacteria solution were applied topically to the buccal surface of the maxillae. For preparation of the bacteria, P. gingivalis W83 (ATCC, Rockville, Md.) was streaked on Tryptic Soy Broth (TSB) agar plates (5% sheep blood, supplemented with 0.5 mg/mL L-cysteine, 5 μg/mL hemin, and 0.5 μg/mL vitamin K) and grown under anaerobic conditions at 37° C. for 5-7 days. Samples were then inoculated in TSB with hemin, vitamin K and L-cysteine (TSB-HKC) until mid-log phase (OD600=0.5-0.7). Bacteria were washed in PBS and prepared at final concentration of 1×10^10 cells/mL in PBS+2% methylcellulose (CMC).
Vehicle-treated animals received PBS only. At 5 weeks, a subgroup of animals (n=16) were euthanized to gather baseline measurements before the start of treatment. After 10 weeks, mice were euthanized and the brain, serum, and maxillary tissues were harvested and frozen in liquid nitrogen.
Bone loss in the maxillae was measured ex vivo blinded using OsiriX MD software (PixmeoSARL, Bernex, Switzerland). […] The distance between the cementoenamel junction (CEJ) and the alveolar bone crest (ABC) was measured from the CEJ to a reference line on the ABC which was placed perpendicular to the superficial root one each side of the second molar. […]

Kgp, sequence (Q51817 229-737 limits assumed): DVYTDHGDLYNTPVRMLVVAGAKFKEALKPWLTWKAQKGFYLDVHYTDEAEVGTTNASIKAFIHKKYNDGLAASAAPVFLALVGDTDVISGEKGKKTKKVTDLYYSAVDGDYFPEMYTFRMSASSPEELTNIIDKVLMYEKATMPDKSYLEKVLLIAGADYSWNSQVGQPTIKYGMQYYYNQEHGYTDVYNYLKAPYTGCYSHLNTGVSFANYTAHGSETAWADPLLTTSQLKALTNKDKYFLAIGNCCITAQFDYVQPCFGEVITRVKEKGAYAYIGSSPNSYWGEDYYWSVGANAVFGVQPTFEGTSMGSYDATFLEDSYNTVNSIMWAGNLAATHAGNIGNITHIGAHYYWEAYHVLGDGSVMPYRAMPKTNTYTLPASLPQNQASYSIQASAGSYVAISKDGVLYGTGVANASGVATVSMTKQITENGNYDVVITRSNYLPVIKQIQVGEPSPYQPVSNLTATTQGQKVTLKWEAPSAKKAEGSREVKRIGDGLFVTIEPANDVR

As for `NCCCC[C@H](NC(=O)C1CCCC1)C(=O)COc1c(F)ccc(F)c1F` [Compound 1, (S)—N-(7-amino-2-oxo-1-(2,3,6-trifluorophenoxy)heptan-3-yl)cyclopentanecarboxamide], the “induction of brain abeta42” value in the experiment on P. gingivalis is given as “reduce induction”. Besides, in the experiment with P. gingivalis, the neuroinflammation result is listed as “reduce induction”. Further, the “competition with probe compound 71 for Kgp active site” value on Kgp is “competes for active site binding”. Also, the alveolar bone loss result was “trended to improvement but did not result in significant improvement” with P. gingivalis W83 (3 mg/kg oral b.i.d.), “improved” with P. gingivalis W83 (10 mg/kg oral b.i.d.) and “improved” with P. gingivalis W83 (30 mg/kg oral b.i.d.).

The values are drawn from US10730826B2, “Ketone inhibitors of lysine gingipain” (CORTEXYME, INC., priority 2016, dated 2020).
